Test results reported in PubChem BioAssay (NCI).
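GI50 marks 50% less growth. TGI denotes the concentration required for complete inhibition of growth.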

Key:
Assay in all cases: NCI-60 cell line screen, 384-well format
[1] = test system: A498 renal
[2] = test system: A549 NSCLC
[3] = test system: ACHN renal
[4] = test system: CAKI-1 renal
[5] = test system: EKVX NSCLC
[6] = test system: HCT-15 colon
[7] = test system: HOP-62 NSCLC
[8] = test system: HOP-92 NSCLC
[9] = test system: IGROV1 ovarian
[10] = test system: KM12 colon
[11] = test system: LOX IMVI melanoma
[12] = test system: MALME-3M melanoma
[13] = test system: MCF7 breast
[14] = test system: NCI-H226 lung
[15] = test system: NCI-H23 lung
[16] = test system: NCI-H322M lung
[17] = test system: NCI/ADR-RES ovarian
[18] = test system: OVCAR-4 ovarian
[19] = test system: OVCAR-5 ovarian
[20] = test system: PC-3 prostate
[21] = test system: RXF 393 renal
[22] = test system: SF-268 CNS
[23] = test system: SK-OV-3 ovarian
[24] = test system: SN12C renal
[25] = test system: SNB-19 CNS
[26] = test system: T-47D breast
[27] = test system: TK-10 renal
[28] = test system: UACC-257 melanoma
[29] = test system: UO-31 renal
[30] = test system: 786-0 renal
[31] = test system: BT-549 breast
[32] = test system: CCRF-CEM leukemia
[33] = test system: COLO 205 colon
[34] = test system: DU-145 prostate
[35] = test system: HCC-2998 colon
[36] = test system: HCT-116 colon
[37] = test system: HL-60(TB) leukemia
[38] = test system: HS 578T breast
[39] = test system: HT29 colon
[40] = test system: K-562 leukemia
[41] = test system: M14 melanoma
[42] = test system: MDA-MB-231 breast
[43] = test system: MDA-MB-435 melanoma
[44] = test system: MDA-MB-468 breast
[45] = test system: MOLT-4 leukemia
[46] = test system: NCI-H460 NSCLC
[47] = test system: NCI-H522 lung
[48] = test system: OVCAR-3 ovarian
[49] = test system: OVCAR-8 ovarian
[50] = test system: RPMI-8226 leukemia
[51] = test system: SF-295 CNS
[52] = test system: SF-539 CNS
[53] = test system: SK-MEL-28 melanoma
[54] = test system: SK-MEL-5 melanoma
[55] = test system: SNB-75 CNS
[56] = test system: SW-620 colon
[57] = test system: U251 glioblastoma
[58] = test system: UACC-62 melanoma

With `CC(=O)O[C@@]12CO[C@@H]1C[C@H](O)[C@@]1(C)C(=O)[C@H](O)C3=C(C)[C@@H](OC(=O)[C@H](O)[C@@H](NC(=O)OC(C)(C)C)c4ccccc4)C[C@@](O)([C@@H](OC(=O)c4ccccc4)[C@H]21)C3(C)C` the TGI [1] was 18.7 µM, the TGI [2] was 29.1 µM and the GI50 [3] was 0.0201 µM. The TGI [3] was 20.9 µM, the TGI [4] was 18 µM and the TGI [5] was 35.8 µM. It also gave a GI50 [6] of less than 0.0151 µM, a TGI [6] of 1.79 µM and a TGI [7] of 17.3 µM. The TGI [8] was 33.2 µM, the TGI [9] was 27.8 µM and the TGI [10] was 24 µM. The TGI [11] was 17.4 µM, the GI50 [12] was 12 µM and the TGI [12] was 24.8 µM. It also gave a TGI [13] of 24.7 µM, a TGI [14] of 22.5 µM and a TGI [15] of 27.3 µM. It also gave a TGI [16] of 31.3 µM, a GI50 [17] of 0.782 µM and a TGI [17] of 2.26 µM. The TGI [18] was 39.9 µM, the TGI [19] was 36.3 µM and the TGI [20] was 37.5 µM. For the same compound, the TGI [21] was less than 0.0108 µM, the TGI [22] was 36.1 µM and the TGI [23] was greater than 100 µM. For the same compound, the TGI [24] was 21.2 µM, the TGI [25] was greater than 70.7 µM and the TGI [26] was greater than 100 µM. For the same compound, the GI50 [27] was less than 0.0143 µM, the TGI [27] was greater than 47.4 µM and the TGI [28] was 31.6 µM. It also gave a GI50 [29] of 0.0791 µM and a TGI [29] of 51.8 µM.

In the case of `COc1cc2cc(C(=O)CCC(=O)O)sc2cc1OC`, the GI50 [30] is reported as greater than 100 µM, the TGI [30] is reported as greater than 100 µM and the GI50 [1] is reported as 33.6 µM. For the same compound, the TGI [1] was greater than 100 µM, the GI50 [2] was greater than 100 µM and the TGI [2] was greater than 100 µM. The GI50 [3] was greater than 100 µM, the TGI [3] was greater than 100 µM and the GI50 [31] was greater than 100 µM. It also gave a TGI [31] greater than 100 µM, a GI50 [4] greater than 100 µM and a TGI [4] greater than 100 µM. For the same compound, the GI50 [32] was greater than 100 µM, the TGI [32] was greater than 100 µM and the GI50 [33] was greater than 100 µM. For the same compound, the TGI [33] was greater than 100 µM, the GI50 [34] was greater than 100 µM and the TGI [34] was greater than 100 µM. For the same compound, the GI50 [5] was greater than 100 µM, the TGI [5] was greater than 100 µM and the GI50 [35] was greater than 100 µM. The TGI [35] was greater than 100 µM, the GI50 [36] was greater than 100 µM and the TGI [36] was greater than 100 µM. It also gave a GI50 [6] greater than 100 µM, a TGI [6] greater than 100 µM and a GI50 [37] of 22.7 µM. For the same compound, the TGI [37] was 45.8 µM, the GI50 [7] was greater than 100 µM and the TGI [7] was greater than 100 µM. For the same compound, the GI50 [8] was greater than 100 µM, the TGI [8] was greater than 100 µM and the GI50 [38] was greater than 100 µM. It also gave a TGI [38] greater than 100 µM, a GI50 [39] greater than 100 µM and a TGI [39] greater than 100 µM. It also gave a GI50 [9] greater than 100 µM, a TGI [9] greater than 100 µM and a GI50 [40] greater than 100 µM. It also gave a TGI [40] greater than 100 µM, a GI50 [10] greater than 100 µM and a TGI [10] greater than 100 µM. It also gave a GI50 [11] greater than 100 µM, a TGI [11] greater than 100 µM and a GI50 [41] greater than 100 µM. The TGI [41] was greater than 100 µM, the GI50 [12] was greater than 100 µM and the TGI [12] was greater than 100 µM. For the same compound, the GI50 [13] was greater than 100 µM, the TGI [13] was greater than 100 µM and the GI50 [42] was greater than 100 µM. It also gave a TGI [42] greater than 100 µM, a GI50 [43] greater than 100 µM and a TGI [43] greater than 100 µM. The GI50 [44] was greater than 100 µM, the TGI [44] was greater than 100 µM and the GI50 [45] was greater than 100 µM. It also gave a TGI [45] greater than 100 µM, a GI50 [14] of 19.5 µM and a TGI [14] of 74.4 µM. It also gave a GI50 [15] greater than 100 µM, a TGI [15] greater than 100 µM and a GI50 [16] greater than 100 µM. For the same compound, the TGI [16] was greater than 100 µM, the GI50 [46] was greater than 100 µM and the TGI [46] was greater than 100 µM. For the same compound, the GI50 [47] was greater than 100 µM, the TGI [47] was greater than 100 µM and the GI50 [17] was greater than 100 µM. The TGI [17] was greater than 100 µM, the GI50 [48] was greater than 100 µM and the TGI [48] was greater than 100 µM. It also gave a GI50 [18] greater than 100 µM, a TGI [18] greater than 100 µM and a GI50 [19] greater than 100 µM. For the same compound, the TGI [19] was greater than 100 µM, the GI50 [49] was greater than 100 µM and the TGI [49] was greater than 100 µM. It also gave a GI50 [20] greater than 100 µM, a TGI [20] greater than 100 µM and a GI50 [50] greater than 100 µM. For the same compound, the TGI [50] was greater than 100 µM, the GI50 [21] was 25 µM and the TGI [21] was greater than 100 µM. For the same compound, the GI50 [22] was greater than 100 µM, the TGI [22] was greater than 100 µM and the GI50 [51] was greater than 100 µM. For the same compound, the TGI [51] was greater than 100 µM, the GI50 [52] was greater than 100 µM and the TGI [52] was greater than 100 µM. It also gave a GI50 [53] greater than 100 µM, a TGI [53] greater than 100 µM and a GI50 [54] greater than 100 µM. It also gave a TGI [54] greater than 100 µM, a GI50 [23] greater than 100 µM and a TGI [23] greater than 100 µM. For the same compound, the GI50 [24] was greater than 100 µM, the TGI [24] was greater than 100 µM and the GI50 [25] was greater than 100 µM. For the same compound, the TGI [25] was greater than 100 µM, the GI50 [55] was greater than 100 µM and the TGI [55] was greater than 100 µM. It also gave a GI50 [56] greater than 100 µM, a TGI [56] greater than 100 µM and a GI50 [26] greater than 100 µM. The TGI [26] was greater than 100 µM, the GI50 [27] was greater than 100 µM and the TGI [27] was greater than 100 µM. It also gave a GI50 [57] greater than 100 µM, a TGI [57] greater than 100 µM and a GI50 [28] greater than 100 µM. The TGI [28] was greater than 100 µM, the GI50 [58] was greater than 100 µM and the TGI [58] was greater than 100 µM. The GI50 [29] was greater than 100 µM and the TGI [29] was greater than 100 µM.
